This assay deals with T1, H3R membranes (H3R8-expressing HEK293 cell line) (Homo sapiens, UniProt Q9Y5N1).
T1 construct: expressed in transfected cells; membranes
Kind of assay: [35S] GTP gamma [S] binding assay. The class given is biochemical. Conditions: agonist R(-)alpha methylhistamine. On the procedure: Membranes isolated as described in (Preparation of Histamine Receptor Subtype Membranes) are used in a [35S]GTPχS functional assay. Binding of [35S]GTPχS to membranes indicates agonist activity. Compounds of the invention of Formula I or Formula II are tested for their ability to inhibit binding in the presence of agonists. Alternately, the same transfected cell lines are used for a cAMP assay wherein H3R agonists inhibit forskolin-activated synthesis of cAMP. Compounds of Formula I or Formula II are tested for their ability to permit forskolin-stimulated cAMP synthesis in the presence of agonist.
cDNA for the human histamine 3 receptor is cloned and expressed as described in (A. Preparation H1R membranes), above. Transfected cells are selected using G418 ([…]), grown, and tested for histamine binding by the SPA described above. For total binding, cells are assayed in a SPA reaction described above containing 50 mM Tris-HCL (assay buffer), pH 7.6, 1 mg wheat germ agglutinin SPA beads (Amersham Pharmacia Biotech, #RPNQ0001), and 1 nM (3H)-n-alpha-methylhistamine (NEN, NET1027) (total volume per well=200 μl). Thioperimide is added to determine non-specific binding. […]
Antagonist activity of selected compounds is tested for inhibition of [35S] […] Plates are counted in Wallac Trilux 1450 Microbeta scintillation counter for 1 minute. […]
In general terms: Binding of GTPγS marks nucleotide exchange on a G protein.

T1 sequence (Q9Y5N1 whole entry): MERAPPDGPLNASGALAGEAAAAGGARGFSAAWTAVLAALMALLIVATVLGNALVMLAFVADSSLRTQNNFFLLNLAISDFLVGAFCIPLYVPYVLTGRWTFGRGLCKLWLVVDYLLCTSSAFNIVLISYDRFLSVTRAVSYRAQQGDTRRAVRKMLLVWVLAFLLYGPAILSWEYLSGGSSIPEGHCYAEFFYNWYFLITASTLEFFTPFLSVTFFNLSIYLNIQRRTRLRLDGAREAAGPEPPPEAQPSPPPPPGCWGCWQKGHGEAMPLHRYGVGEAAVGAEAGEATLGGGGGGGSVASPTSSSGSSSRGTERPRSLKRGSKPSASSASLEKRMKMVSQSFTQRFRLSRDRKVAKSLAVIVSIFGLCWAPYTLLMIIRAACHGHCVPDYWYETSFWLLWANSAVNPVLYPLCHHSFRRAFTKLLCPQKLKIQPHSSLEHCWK

Usually Ki stands for the dissociation constant of the complex between target and ligand, obtained from inhibition or displacement. For the compound `O=C(c1ccc(S(=O)(=O)c2ccccc2)cc1)N1CCC[C@H]1CN1CCCC1`, the Ki was 12 nM.
For the compound `O=C(c1ccc(C2CCCCC2)cc1)N1CCC[C@H]1CN1CCCC1`, the Ki was determined as 47 nM.

For the origin of these results see patent US8178528B2, “Histamine H3 receptor agents, preparation and therapeutic uses” (Eli Lilly and Company, priority 2005, dated 2012).
